Experimental data as given in ChEMBL document CHEMBL6109156, “Discovery of Dual PD-L1/HDAC3 Inhibitors for Tumor Immunotherapy” (J Med Chem, 2025).
Calls of active or inactive are those of the source. No cut-off for these calls is given here.

What was measured:
B16-F10 [1] = experiment: Immunomodulatory activity in mouse B16-F10 cells implanted in C57BL/6J mouse assessed as percentage of CD3 positive CD8 positive cells in tumor at 40 mg/kg, ip administered once daily for 9 days by flow cytometric analysis (reference value: 0.44 %); format: functional; settings: time 9 day
[2] = biological target: Programmed cell death protein 1/Programmed cell death 1 ligand 1 (Homo sapiens, UniProt Q9NZQ7); experiment: (§1) Inhibition of PD-1/PD-L1 (unknown origin) interaction assessed as inhibition rate at 1 uM by HTRF assay relative to control; format: protein-complex assay
[3] = biological target: Programmed cell death protein 1/Programmed cell death 1 ligand 1 (Homo sapiens) (UniProt Q15116+Q9NZQ7); experiment: as §1; format: protein-complex assay
[4] = biological target: T1, Protein deacetylase HDAC6 (Homo sapiens, UniProt Q9UBN7); experiment: Inhibition of human recombinant HDAC6 using Ac-Leu-Gly-Lys (Ac)-AMC as substrate preincubated for 10 mins followed by substrate addition and measured after 45 mins by TECAN microtiter plate reader analysis
T1 sequence (Q9UBN7 whole entry): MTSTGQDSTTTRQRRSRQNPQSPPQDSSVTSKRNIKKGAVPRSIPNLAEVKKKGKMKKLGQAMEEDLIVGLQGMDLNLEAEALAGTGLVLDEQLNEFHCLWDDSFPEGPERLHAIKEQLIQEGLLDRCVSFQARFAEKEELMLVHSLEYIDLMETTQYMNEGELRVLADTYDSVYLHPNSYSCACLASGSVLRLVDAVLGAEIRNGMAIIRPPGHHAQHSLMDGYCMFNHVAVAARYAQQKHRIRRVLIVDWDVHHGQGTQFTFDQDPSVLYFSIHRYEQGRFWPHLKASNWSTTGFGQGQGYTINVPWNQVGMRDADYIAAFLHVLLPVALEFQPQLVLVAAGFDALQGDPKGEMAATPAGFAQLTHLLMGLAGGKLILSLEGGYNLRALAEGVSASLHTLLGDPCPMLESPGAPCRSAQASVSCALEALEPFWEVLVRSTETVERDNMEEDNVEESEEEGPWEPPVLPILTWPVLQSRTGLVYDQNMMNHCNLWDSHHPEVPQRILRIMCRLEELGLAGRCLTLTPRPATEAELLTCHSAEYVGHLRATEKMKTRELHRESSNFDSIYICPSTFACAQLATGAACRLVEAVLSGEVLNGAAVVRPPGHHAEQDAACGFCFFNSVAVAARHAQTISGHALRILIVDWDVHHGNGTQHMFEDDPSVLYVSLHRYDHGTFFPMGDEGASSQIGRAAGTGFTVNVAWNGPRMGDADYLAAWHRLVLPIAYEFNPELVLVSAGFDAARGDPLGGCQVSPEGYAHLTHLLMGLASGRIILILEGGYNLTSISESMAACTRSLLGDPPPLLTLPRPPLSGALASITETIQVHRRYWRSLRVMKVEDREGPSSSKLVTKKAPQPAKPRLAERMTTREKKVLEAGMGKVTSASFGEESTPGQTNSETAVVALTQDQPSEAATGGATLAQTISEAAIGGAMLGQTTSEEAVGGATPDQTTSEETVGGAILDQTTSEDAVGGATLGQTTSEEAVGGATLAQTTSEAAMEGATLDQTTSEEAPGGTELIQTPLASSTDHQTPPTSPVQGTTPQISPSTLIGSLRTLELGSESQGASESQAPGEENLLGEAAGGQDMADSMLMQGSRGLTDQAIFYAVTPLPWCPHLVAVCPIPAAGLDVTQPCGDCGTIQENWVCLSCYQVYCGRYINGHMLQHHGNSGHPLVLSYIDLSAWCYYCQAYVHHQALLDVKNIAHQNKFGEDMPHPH

Jurkat = experiment: Antiproliferative activity against human Jurkat T cells assessed as cell viability incubated for 48 hrs by MTT assay; format: functional, cell-based
[5] = biological target: T2, Histone deacetylase 3 (Mus musculus) (UniProt O88895); experiment: Inhibition of HDAC3 in mouse B16-F10 cells assessed as upregulation of Ac-H3 level at 3 uM incubated for 24 hrs by Western blotting analysis; format: cell-based
T2 sequence (whole entry): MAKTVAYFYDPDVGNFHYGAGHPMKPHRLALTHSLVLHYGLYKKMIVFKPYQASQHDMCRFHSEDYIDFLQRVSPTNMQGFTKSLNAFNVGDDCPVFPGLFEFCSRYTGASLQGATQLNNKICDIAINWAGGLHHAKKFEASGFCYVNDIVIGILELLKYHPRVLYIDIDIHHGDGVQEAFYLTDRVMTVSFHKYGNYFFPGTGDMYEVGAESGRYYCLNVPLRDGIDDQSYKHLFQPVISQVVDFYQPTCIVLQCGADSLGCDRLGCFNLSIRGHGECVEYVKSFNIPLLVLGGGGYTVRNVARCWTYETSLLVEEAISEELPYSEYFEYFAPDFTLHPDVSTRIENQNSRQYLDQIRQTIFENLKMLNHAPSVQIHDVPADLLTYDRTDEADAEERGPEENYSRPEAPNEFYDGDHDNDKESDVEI

B16-F10 [6] = experiment: Induction of apoptosis in mouse B16-F10 cells assessed as early apoptotic cells at 2 uM incubated for 48 hrs by Annexin V-FITC/PI staining based flow cytometry analysis (reference value: 0.45 %); format: functional
B16-F10 [7] = experiment: Induction of apoptosis in mouse B16-F10 cells assessed as necrotic cells at 8 uM incubated for 48 hrs by Annexin V-FITC/PI staining based flow cytometry analysis (reference value: 2.24%); format: functional
B16-F10 [8] = experiment: Antiproliferative activity against mouse B16-F10 cells assessed as cell growth inhibition incubated for 48 hrs by MTT assay; format: functional, cell-based; settings: B16-F10, 48 h
B16-F10 [9] = experiment: Antitumor activity against mouse B16-F10 cells implanted in C57BL/6J mouse assessed as tumor growth inhibition at 40 mg/kg, ip administered once daily for 9 days; format: functional; settings: B16-F10, 216 h, time 9 day, read-out: TGI
4T1 = experiment: Antiproliferative activity against mouse 4T1 cells assessed as cell growth inhibition incubated for 48 hrs by MTT assay; format: functional, cell-based; settings: 4T1, 48 h
B16-F10 [10] = experiment: Induction of cell cycle arrest in mouse B16-F10 cells assessed as accumulation of cells at S phase at 8 uM incubated for 48 hrs by PI staining based flow cytometry analysis (reference value: 24.04%); format: functional

Programmed cell death protein 1/Programmed cell death 1 ligand 1, sequence (Q15116 whole entry): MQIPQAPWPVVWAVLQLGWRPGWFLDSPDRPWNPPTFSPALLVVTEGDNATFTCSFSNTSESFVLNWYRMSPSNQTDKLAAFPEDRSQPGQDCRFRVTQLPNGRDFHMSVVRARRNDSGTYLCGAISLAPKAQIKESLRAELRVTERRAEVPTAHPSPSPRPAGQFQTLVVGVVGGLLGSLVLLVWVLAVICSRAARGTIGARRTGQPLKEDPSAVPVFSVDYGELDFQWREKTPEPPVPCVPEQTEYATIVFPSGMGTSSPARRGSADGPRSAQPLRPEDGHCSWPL
Programmed cell death protein 1/Programmed cell death 1 ligand 1, sequence (Q9NZQ7 whole entry): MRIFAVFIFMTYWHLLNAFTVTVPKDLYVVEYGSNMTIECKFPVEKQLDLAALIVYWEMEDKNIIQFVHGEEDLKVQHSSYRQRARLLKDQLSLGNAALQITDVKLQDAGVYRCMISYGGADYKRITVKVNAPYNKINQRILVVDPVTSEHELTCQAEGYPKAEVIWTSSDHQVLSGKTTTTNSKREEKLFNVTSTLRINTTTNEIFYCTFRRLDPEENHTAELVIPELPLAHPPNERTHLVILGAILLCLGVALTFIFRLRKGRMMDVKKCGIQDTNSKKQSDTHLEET

IC50 [4]: > 10000 nM
inhibition [5]: Active
IC50 (B16-F10 [8]): 2330 nM
IC50 (4T1): 4660 nM
Compound: CCCNNC(=O)CCCNCc1ccc(-c2cccc(-c3ccccc3)c2C)nc1OC
Activity (B16-F10 [1]): 5.08%
IC50 [2]: 89.4 nM
inhibition [3]: 94.3%
Activity (Jurkat): Active
Activity (B16-F10 [6]): 9.81%
Activity (B16-F10 [7]): 2.21%
inhibition in vivo at 40 mg/kg (B16-F10 [9]): 66.5%
Activity (B16-F10 [10]): 0.5%
